Target: T1, human somatostatin receptor subtype 2 (Homo sapiens, UniProt P30874)
T1 construct: expressed in transfected cells; host or cells: CHO (Chinese hamster ovary) cells, G-418 selected
Assay: cAMP assay (functional assay for SSTR2 agonists)
Format: cell-based
Conditions: CHO cells expressing human SSTR2; intracellular cAMP with forskolin, HTRF; read-out: SSTR2a EC50
Text: Functional Assay for SSTR2 Agonists
General overview: All five SSTR subtypes are Gi coupled G-protein coupled receptors (GPCRs) that lead to decreases in intracellular cyclic AMP (cAMP) when activated by an agonist. Therefore, measurement of intracellular cAMP levels can be used to assess whether compounds of the invention are agonists of SSTR subtypes (John Kelly, Troy Stevens, W. Joseph Thompson, and Roland Seifert, Current Protocols in Pharmacology, 2005, 2.2.1-2.2). One example of an intracellular cAMP assay is described below.
One day prior to the assay, 40,000 Chinese hamster ovary (CHO) cells expressing the human somatostatin receptor subtype 2 are plated in each well of a 96-well tissue culture plate in DM-MEM growth media (Gibco) with the following additives: 10% fetal bovine serum (Gibco), 100 U/mL penicillin (Gibco), 100 ug/mL streptomycin (Gibco), 10 mM HEPES (Gibco), 1.2 mM sodium hydroxide, 0.5 mg/mL G-418 (Gibco)). The cells are cultured overnight at 37° C., 5% CO2 and 95% humidity. On the day of the assay, the media is aspirated and the cells are washed with 1× Dulbecco's phosphate buffered saline (Gibco). Next, 5 μL of assay buffer (1× Earle's Balanced Salt Solution (Gibco), 5 mM MgCl2, 10 mM HEPES, 0.1% bovine serum albumin, 0.2 mM 3-Isobutyl-1-methylxanthine (IBMX, Biomol Research Labs)) and forskolin is added. Various dilutions of the compounds of the invention are prepared in assay buffer and 5 μL of the dilutions are added to the cultured cells and incubated for 15 minutes at 37° C. […] 10 μL of lysis buffer (HRTF cAMP kit, Cisbio) containing cAMP detection and visualization antibodies are added and the assay is allowed incubate for 1-24 hours at room temperature. The intracellular cAMP concentrations are then measured using a commercially available detection kit (for example, the cAMP HTRF kit, Cisbio). The measured intracellular cAMP concentrations are plotted vs. the concentration of the compounds of the invention and the EC50 of the compounds are calculated using standard methods.

T1 sequence (P30874 whole entry): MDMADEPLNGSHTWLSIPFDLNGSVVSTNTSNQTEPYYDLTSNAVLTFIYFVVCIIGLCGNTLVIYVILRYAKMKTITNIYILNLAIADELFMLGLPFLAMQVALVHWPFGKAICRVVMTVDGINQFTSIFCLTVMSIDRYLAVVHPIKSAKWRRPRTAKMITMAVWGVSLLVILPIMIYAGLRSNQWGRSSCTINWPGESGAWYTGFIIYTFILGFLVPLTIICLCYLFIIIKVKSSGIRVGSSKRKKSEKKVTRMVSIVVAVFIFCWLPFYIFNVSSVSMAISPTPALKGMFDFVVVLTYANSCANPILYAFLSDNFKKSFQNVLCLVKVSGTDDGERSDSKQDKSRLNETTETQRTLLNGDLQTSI

SMILES	EC50 [nM]
Cc1cc(F)cc(N2C=Nc3cc(C)c(-c4cccc(O)c4)cc3C2C(=O)N(C)C[C@@H]2CCCN2)c1 (stereo partly drawn) [Compound 1-25, 3-(3-fluoro-5-methylphenyl)-6-(3-hydroxyphenyl)-N,7-dimethyl-N-[(2S)-pyrrolidin-2-ylmethyl]-3,4-dihydroquinazoline-4-carboxamide]	< 100
Cc1cc(F)cc(N2C=Nc3cc(C)c(-c4cc(O)ccc4Cl)cc3C2C(=O)N(C)C[C@@H]2CCCN2)c1 (stereo partly drawn) [Compound 1-26, 6-(2-chloro-5-hydroxyphenyl)-3-(3-fluoro-5-methylphenyl)-N,7-dimethyl-N-[(2S)-pyrrolidin-2-ylmethyl]-3,4-dihydroquinazoline-4-carboxamide]	< 100
CC1=Nc2ccc(-c3cc(O)ccc3Cl)cc2C(C(=O)N(C)C[C@@H]2CCCN2)N1c1cc(C)cc(Cl)c1 (stereo partly drawn) [Compound 1-27, 6-(2-chloro-5-hydroxyphenyl)-3-(3-chloro-5-methylphenyl)-N,2-dimethyl-N-[(2S)-pyrrolidin-2-ylmethyl]-3,4-dihydroquinazoline-4-carboxamide]	< 100
CC1=Nc2ccc(-c3cc(O)ccc3Cl)cc2C(C(=O)NC[C@@H]2CCCN2)N1c1cc(C)cc(Cl)c1 (stereo partly drawn) [Compound 1-28, 6-(2-chloro-5-hydroxyphenyl)-3-(3-chloro-5-methylphenyl)-2-methyl-N-[(2S)-pyrrolidin-2-ylmethyl]-3,4-dihydroquinazoline-4-carboxamide]	< 100
Cc1cc(Cl)cc(N2C=Nc3ccc(-c4cccc(O)c4Cl)cc3C2C(=O)N(C)C[C@@H]2CCCN2)c1 (stereo partly drawn) [Compound 1-29, 6-(2-chloro-3-hydroxyphenyl)-3-(3-chloro-5-methylphenyl)-N-methyl-N-[(2S)-pyrrolidin-2-ylmethyl]-3,4-dihydroquinazoline-4-carboxamide]	< 100
Cc1cc(Cl)cc(N2C=Nc3ccc(-c4cc(O)ccc4Cl)cc3C2C(=O)N(C)C[C@@H]2CCCN2)c1 (stereo partly drawn) [Compound 1-30, 6-(2-chloro-5-hydroxyphenyl)-3-(3-chloro-5-methylphenyl)-N-methyl-N-[(2S)-pyrrolidin-2-ylmethyl]-3,4-dihydroquinazoline-4-carboxamide]	< 100
CCN(C[C@@H]1CCCN1)C(=O)C1c2cc(-c3cccc(O)c3)c(C)cc2N=CN1c1cc(C)cc(Cl)c1 (stereo partly drawn) [Compound 1-31, 3-(3-chloro-5-methylphenyl)-N-ethyl-6-(3-hydroxyphenyl)-7-methyl-N-[(2S)-pyrrolidin-2-ylmethyl]-3,4-dihydroquinazoline-4-carboxamide]	< 100
Cc1cc(Cl)cc(N2C=Nc3cc(C)c(-c4ccccc4)cc3C2C(=O)N(C)C[C@@H]2CCCN2)c1 (stereo partly drawn) [Compound 1-32, 3-(3-chloro-5-methylphenyl)-N,7-dimethyl-6-phenyl-N-[(2S)-pyrrolidin-2-ylmethyl]-3,4-dihydroquinazoline-4-carboxamide]	< 100
Cc1cc(Cl)cc(N2C=Nc3cc(C)c(-c4cccc(C#N)c4)cc3C2C(=O)N(C)C[C@@H]2CCCN2)c1 (stereo partly drawn) [Compound 1-33, 3-(3-chloro-5-methylphenyl)-6-(3-cyanophenyl)-N,7-dimethyl-N-[(2S)-pyrrolidin-2-ylmethyl]-3,4-dihydroquinazoline-4-carboxamide]	< 100
Cc1cc(Cl)cc(N2C=Nc3cc(C)c(-c4cc(F)ccc4Cl)cc3C2C(=O)N(C)C[C@@H]2CCCN2)c1 (stereo partly drawn) [Compound 1-35, 6-(2-chloro-5-fluorophenyl)-3-(3-chloro-5-methylphenyl)-N,7-dimethyl-N-[(2S)-pyrrolidin-2-ylmethyl]-3,4-dihydroquinazoline-4-carboxamide]	< 100
Cc1cc(Cl)cc(N2C=Nc3cc(C)c(-c4ccccc4Cl)cc3C2C(=O)N(C)C[C@@H]2CCCN2)c1 (stereo partly drawn) [Compound 1-36, 3-(3-chloro-5-methylphenyl)-6-(2-chlorophenyl)-N,7-dimethyl-N-[(2S)-pyrrolidin-2-ylmethyl]-3,4-dihydroquinazoline-4-carboxamide]	< 100

Other lines, results leading:

EC50 [nM]	SMILES
< 100	Cc1cc(Cl)cc(N2C=Nc3cc(C)c(-c4cc(C#N)ccc4Cl)cc3C2C(=O)N(C)C[C@@H]2CCCN2)c1 (stereo partly drawn) [Compound 1-37, 6-(2-chloro-5-cyanophenyl)-3-(3-chloro-5-methylphenyl)-N,7-dimethyl-N-[(2S)-pyrrolidin-2-ylmethyl]-3,4-dihydroquinazoline-4-carboxamide]
< 100	Cc1cc(Cl)cc(N2C=Nc3cc(C)c(-c4cc(F)cc(C#N)c4)cc3C2C(=O)N(C)C[C@@H]2CCCN2)c1 (stereo partly drawn) [Compound 1-38, 3-(3-chloro-5-methylphenyl)-6-(3-cyano-5-fluorophenyl)-N,7-dimethyl-N-[(2S)-pyrrolidin-2-ylmethyl]-3,4-dihydroquinazoline-4-carboxamide]
< 100	Cc1cc(C#N)cc(-c2cc3c(cc2C)N=CN(c2cc(C)cc(Cl)c2)C3C(=O)N(C)C[C@@H]2CCCN2)c1 (stereo partly drawn) [Compound 1-39, 3-(3-chloro-5-methylphenyl)-6-(3-cyano-5-methylphenyl)-N,7-dimethyl-N-[(2S)-pyrrolidin-2-ylmethyl]-3,4-dihydroquinazoline-4-carboxamide]
< 100	Cc1cc(Cl)cc(N2C=Nc3cc(C)c(-c4cc(F)cc(F)c4)cc3C2C(=O)N(C)C[C@@H]2CCCN2)c1 (stereo partly drawn) [Compound 1-40, 3-(3-chloro-5-methylphenyl)-6-(3,5-difluorophenyl)-N,7-dimethyl-N-[(2S)-pyrrolidin-2-ylmethyl]-3,4-dihydroquinazoline-4-carboxamide]
< 100	Cc1cc(Cl)cc(N2C=Nc3cc(C)c(-c4cccc(C#N)c4F)cc3C2C(=O)N(C)C[C@@H]2CCCN2)c1 (stereo partly drawn) [Compound 1-41, 3-(3-chloro-5-methylphenyl)-6-(3-cyano-2-fluorophenyl)-N,7-dimethyl-N-[(2S)-pyrrolidin-2-ylmethyl]-3,4-dihydroquinazoline-4-carboxamide]
< 100	Cc1cc(Cl)cc(N2C=Nc3cc(C)c(-c4cc(C#N)cc(C(F)(F)F)c4)cc3C2C(=O)N(C)C[C@@H]2CCCN2)c1 (stereo partly drawn) [Compound 1-42, 3-(3-chloro-5-methylphenyl)-6-[3-cyano-5-(trifluoromethyl)phenyl]-N,7-dimethyl-N-[(2S)-pyrrolidin-2-ylmethyl]-3,4-dihydroquinazoline-4-carboxamide]
< 100	Cc1cc(Cl)cc(N2C=Nc3cc(C)c(-c4cccc(C(F)(F)F)c4)cc3C2C(=O)N(C)C[C@@H]2CCCN2)c1 (stereo partly drawn) [Compound 1-43, 3-(3-chloro-5-methylphenyl)-N,7-dimethyl-N-[(2S)-pyrrolidin-2-ylmethyl]-6-[3-(trifluoromethyl)phenyl]-3,4-dihydroquinazoline-4-carboxamide]
< 100	Cc1cc(Cl)cc(N2C=Nc3cc(C)c(-c4cccc(C#N)c4C)cc3C2C(=O)N(C)C[C@@H]2CCCN2)c1 (stereo partly drawn) [Compound 1-44, 3-(3-chloro-5-methylphenyl)-6-(3-cyano-2-methylphenyl)-N,7-dimethyl-N-[(2S)-pyrrolidin-2-ylmethyl]-3,4-dihydroquinazoline-4-carboxamide]
< 100	Cc1cc(Cl)cc(N2C=Nc3ccc(-c4cccc(O)c4)cc3C2C(=O)N(C)C[C@@H]2CCCN2)c1 (stereo partly drawn) [Compound 1-45, 3-(3-chloro-5-methylphenyl)-6-(3-hydroxyphenyl)-N-methyl-N-[(2S)-pyrrolidin-2-ylmethyl]-3,4-dihydroquinazoline-4-carboxamide]
100 to 1000	Cc1cc(Cl)cc(N2C=Nc3cc(C)c(-c4cccc(S(C)(=O)=O)c4)cc3C2C(=O)N(C)C[C@@H]2CCCN2)c1 (stereo partly drawn) [Compound 1-46, 3-(3-chloro-5-methylphenyl)-6-(3-methanesulfonylphenyl)-N,7-dimethyl-N-[(2S)-pyrrolidin-2-ylmethyl]-3,4-dihydroquinazoline-4-carboxamide]
< 100	Cc1cc(Cl)cc(N2C=Nc3cc(C)c(-c4cccc(-c5nnn[nH]5)c4)cc3C2C(=O)N(C)C[C@@H]2CCCN2)c1 (stereo partly drawn) [Compound 1-47, 3-(3-chloro-5-methylphenyl)-N,7-dimethyl-N-[(2S)-pyrrolidin-2-ylmethyl]-6-[3-(1H-1,2,3,4-tetrazol-5-yl)phenyl]-3,4-dihydroquinazoline-4-carboxamide]
< 100	Cc1cc(Cl)cc(N2C=Nc3cc(C)c(-c4cc(O)cc(C#N)c4)cc3C2C(=O)N(C)C[C@@H]2CCCN2)c1 (stereo partly drawn) [Compound 1-48, 3-(3-chloro-5-methylphenyl)-6-(3-cyano-5-hydroxyphenyl)-N,7-dimethyl-N-[(2S)-pyrrolidin-2-ylmethyl]-3,4-dihydroquinazoline-4-carboxamide]
100 to 1000	CCOC(=O)Cc1cccc(-c2cc3c(cc2C)N=CN(c2cc(C)cc(Cl)c2)C3C(=O)N(C)C[C@@H]2CCCN2)c1 (stereo partly drawn) [Compound 1-49, ethyl 2-{3-[3-(3-chloro-5-methylphenyl)-7-methyl-4-{methyl[(2S)-pyrrolidin-2-ylmethyl]carbamoyl}-3,4-dihydroquinazolin-6-yl]phenyl}acetate]

— patent US9902703B2, “Somatostatin modulators and uses thereof” (Crinetics Pharmaceuticals, Inc., priority 2015, dated 2018)
